Here are results for 12 compounds from patent US6653478B2, “Substituted benzimidazol-2-ones as vasopressin receptor antagonists and neuropeptide Y modulators” (Ortho-McNeil Pharmaceutical, Inc., priority 2000, dated 2003).

Molecules are shown by their SMILES.

Experiment [1] concerns the target human V1a receptor (Homo sapiens, UniProt P37288). As to the kind of experiment: V1a binding assay (3H-AVP displacement, HEK-293 membranes). Further details: expressed in transfected cells; host or cells: HEK-293 (membranes). Conditions: for inhibition at 1 µM: 1.0 μM compound, read-out: V1a@1.0, % Inh; for inhibition at 0.1 µM: 0.1 μM compound, read-out: V1a % Inh @0.1. The procedure, abridged:
(§1)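 Tracer 3H-AVP, 10,000 cpm/well; buffer 50 mM Tris/5 mM MgCl2/0.1% BSA pH 7.5 + Pefabloc, aprotinin, leupeptin, pepstatin A, bacitracin; NSB 1.25 μM AVP; 1 h RT; GF/C filtration (0.3% PEI); scintillation count with quench correction.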

For experiment [2], the target named is T1, NPY2 receptors (Homo sapiens, UniProt P49146).
T1 construct: Cell Membranes from KAN-TS cells having NPY2 receptors; endogenous in cells; host or cells: KAN-TS cells (membranes)
T1 sequence (P49146 1-381): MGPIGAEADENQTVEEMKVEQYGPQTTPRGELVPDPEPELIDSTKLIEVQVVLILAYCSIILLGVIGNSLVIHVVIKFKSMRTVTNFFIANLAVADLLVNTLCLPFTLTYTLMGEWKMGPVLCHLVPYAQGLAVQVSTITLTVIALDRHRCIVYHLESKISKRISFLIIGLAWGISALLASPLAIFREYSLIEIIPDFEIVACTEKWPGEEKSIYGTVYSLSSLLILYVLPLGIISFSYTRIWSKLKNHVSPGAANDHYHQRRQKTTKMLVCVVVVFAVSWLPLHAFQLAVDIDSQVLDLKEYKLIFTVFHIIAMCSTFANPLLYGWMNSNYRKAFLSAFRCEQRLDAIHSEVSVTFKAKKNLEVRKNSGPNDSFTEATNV
As to the kind of experiment: Neuropeptide Y receptor binding assay (125I-PYY, KAN-TS cell membranes). Conditions: 10 μM compound; read-out: NPY-2@10, % Inh. The protocol: Neuropeptide Y Receptor Binding Assay
Load 96-well RIA racks with RIA vials (Sarstedt, cat. #73.1055)
Prepare membranes—use 2×15 cm confluent plates/96-well assay plate
Add 14 mls Homogenization buffer/cell pellet
Homogenize at high speed for 15 seconds
Transfer to 15 ml conical tube and spin 5′ at 4° C. at setting 3 in RT6000 centrifuge
Transfer supernatant to 30 ml Corex tube
Balance and spin 25′ at 15,000 rpm at 4° C.
Resuspend pellet in 10 mls Binding buffer
Homogenize at high speed for 15 sec.
Bring volume up to 50 mls in Binding buffer (25 mls/2×96-well plates)
Keep on ice until use or freeze in aliquots (2 plates/tube) in −70° C.
Prepare ^125I-PYY (for 2×96-well compound plates)
Dilute 50 uCi ^125I-PYY in 1 ml H2O
Add 0.4 ml 10% BSA to 20 ml Binding buffer
Add 150 μl ^125I-PYY, mix well
NSB (1 μM PYY final conc.): 40 μl PYY (100 μM stock)+60 μl 30% DMSO in HEPES=40 μM PYY—add 5 μl/well
Total Binding: Add 5 μl/well of Compound Diluent
Add 5 μl compound (final conc. @10 μM)
Incubate at R.T. for 1 hr.
Spin plates for 10′ at setting 9 in RT6000 centrifuge
Aspirate supernatant from tubes, add 300 μl PBS and aspirate again.
After plates are washed and aspirated, put individual tubes in 12×75 mm polypropylene carrier tubes. Count on gamma counter.

Experiment [3] concerns the target human V2 receptor (Homo sapiens, UniProt P30518). As to the kind of experiment: V2 binding assay (3H-AVP displacement, HEK-293 membranes). Details: expressed in transfected cells; host or cells: HEK-293 (membranes). Particulars: 1.0 μM compound; read-out: V2@1.0, % Inh. Put shortly:
as §1

The target of experiment [4] is T2, human V1b receptor (Homo sapiens, UniProt P47901).
T2 sequence (P47901 1-424): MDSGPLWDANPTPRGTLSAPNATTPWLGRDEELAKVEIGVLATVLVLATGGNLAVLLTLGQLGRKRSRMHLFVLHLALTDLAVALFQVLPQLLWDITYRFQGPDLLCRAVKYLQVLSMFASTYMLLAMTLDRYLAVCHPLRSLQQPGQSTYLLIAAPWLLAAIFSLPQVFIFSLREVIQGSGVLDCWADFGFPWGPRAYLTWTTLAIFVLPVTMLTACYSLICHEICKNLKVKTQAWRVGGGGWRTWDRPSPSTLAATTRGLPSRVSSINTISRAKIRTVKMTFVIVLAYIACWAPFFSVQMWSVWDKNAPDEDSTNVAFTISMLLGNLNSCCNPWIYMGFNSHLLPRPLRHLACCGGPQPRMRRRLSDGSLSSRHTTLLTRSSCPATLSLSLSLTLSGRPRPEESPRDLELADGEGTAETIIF
As to the kind of experiment: V1b binding assay (3H-AVP displacement, HEK-293 membranes). Conditions: 10 μM compound; read-out: V1b % Inh @10. Details: expressed in transfected cells; host or cells: HEK-293 (membranes). The procedure, abridged: as §1

Sequence of human V1a receptor (P37288 whole entry): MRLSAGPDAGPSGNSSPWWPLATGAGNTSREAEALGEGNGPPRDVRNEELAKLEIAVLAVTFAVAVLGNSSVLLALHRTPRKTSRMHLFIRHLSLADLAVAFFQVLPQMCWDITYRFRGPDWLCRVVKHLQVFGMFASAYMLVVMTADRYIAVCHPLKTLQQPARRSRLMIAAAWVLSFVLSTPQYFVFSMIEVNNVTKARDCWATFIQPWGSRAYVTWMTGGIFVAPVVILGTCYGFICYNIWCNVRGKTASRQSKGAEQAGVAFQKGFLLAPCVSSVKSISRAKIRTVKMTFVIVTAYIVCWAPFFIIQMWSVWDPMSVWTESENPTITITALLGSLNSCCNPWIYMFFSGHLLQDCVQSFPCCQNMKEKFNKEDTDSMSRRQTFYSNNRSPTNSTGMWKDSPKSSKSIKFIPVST
Sequence of human V2 receptor (P30518 whole entry): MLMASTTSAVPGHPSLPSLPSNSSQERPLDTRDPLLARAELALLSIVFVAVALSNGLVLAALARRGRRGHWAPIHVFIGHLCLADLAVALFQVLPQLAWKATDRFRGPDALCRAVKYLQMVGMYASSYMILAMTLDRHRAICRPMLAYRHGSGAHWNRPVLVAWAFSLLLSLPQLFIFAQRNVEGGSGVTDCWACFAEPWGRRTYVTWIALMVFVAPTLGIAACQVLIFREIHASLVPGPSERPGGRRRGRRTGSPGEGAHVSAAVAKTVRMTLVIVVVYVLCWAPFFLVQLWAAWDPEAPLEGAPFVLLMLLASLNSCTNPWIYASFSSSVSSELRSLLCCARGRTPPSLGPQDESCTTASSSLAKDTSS

`CC(=O)NCCNC(=O)C(Cc1ccccc1)NC(=S)N1CCC(n2c(=O)[nH]c3ccccc32)CC1` (stereo not drawn) [Compound 44]: the inhibition at 1 µM in experiment [1] is 37%; in experiment [3], 2%. Moreover, the inhibition at 10 µM came to 9% in experiment [2] and 24% in experiment [4].

Take `CC(C)(C)OC(=O)NCCNC(=O)C(Cc1ccccc1)NC(=S)N1CCC(n2c(=O)[nH]c3ccccc32)CC1` (stereo not drawn) [Compound 46]: the inhibition at 0.1 µM in experiment [1] stood at 8%. Also, the inhibition at 10 µM in experiment [2] is 16%; in experiment [4], 26%. Besides, in experiment [3], the inhibition at 1 µM was determined as 0%.

Take `NC(=O)C(Cc1ccccc1)NC(=S)N1CCC(n2c(=O)[nH]c3ccccc32)CC1` (stereo not drawn) [Compound 47]: the inhibition at 1 µM in experiment [1] was found to be 45%; in experiment [3], 14%. Moreover, the inhibition at 10 µM in experiment [2] stood at 10%; in experiment [4], 0%.

Take `Cc1ccccc1NC(=O)N1CCC(n2c(=O)[nH]c3ccccc32)CC1` [Compound 48]: the values for the inhibition at 1 µM in experiment [1] and in experiment [3] were 2% and 0%, respectively. Moreover, the inhibition at 10 µM is 22% in experiment [2] and 3% in experiment [4].

Consider `O=C(Nc1ccccc1-c1ccccc1)N1CCC(n2c(=O)[nH]c3ccccc32)CC1` [Compound 49], for which the results for the inhibition at 1 µM in experiment [1] and in experiment [3] were 63% and 0%, respectively. For the same compound, the values for the inhibition at 10 µM in experiment [2] and in experiment [4] were 12% and 18%, respectively.

On to `COC(=O)[C@@H](Cc1c[nH]c2ccccc12)NC(=S)N1CCC(n2c(=O)[nH]c3ccccc32)CC1` [Compound 50], for which the values for the inhibition at 1 µM in experiment [1] and in experiment [3] were 8% and 0%, respectively. For the same compound, the values for the inhibition at 10 µM in experiment [2] and in experiment [4] were 16% and 15%, respectively.

As to `COC(=O)[C@@H](Cc1ccccc1)NC(=S)N1CCC(n2c(=O)[nH]c3ccccc32)CC1` [Compound 51], the inhibition at 1 µM in experiment [1] stood at 25%; in experiment [3], 1%. Besides, the values for the inhibition at 10 µM in experiment [2] and in experiment [4] were 2% and 19%, respectively.

On to `O=C1c2ccccc2C(=O)N1CCCn1c(=O)n(C2CCN(C(=S)NC(c3ccccc3)c3ccccc3)CC2)c2ccccc21` [Compound 54, 1-[(N1-Piperidinocarbothioyldiphenylmethylamino)-4-yl]-3-(3-N-phthalimidopropyl)-1,3-dihydrobenzimidazol-2-one], for which the inhibition at 1 µM in experiment [1] is 47%; in experiment [3], 0%. For the same compound, the inhibition at 10 µM in experiment [2] is 4%; in experiment [4], 18%.

With `COC(=O)C(Cc1ccccc1)NC(=S)N1CCC(n2c(=O)n(CCCN3C(=O)c4ccccc4C3=O)c3ccccc32)CC1` (stereo not drawn) [Compound 56], the half-inhibitory concentration (IC50) in experiment [1] came to 360 nM. The inhibition at 10 µM in experiment [2] amounted to 22%; in experiment [4], 19%. In addition, the inhibition at 1 µM in experiment [3] worked out at 3%.

In the case of `CCOC(=O)CCn1c(=O)n(C2CCN(C(=S)NC(c3ccccc3)c3ccccc3)CC2)c2ccccc21` [Compound 60, 1-[(N1-Piperidinocarbothioyldiphenylmethylamino)-4-yl]-3-(2-carboethoxyethyl)-1,3-dihydro-benzimidazol-2-one], the inhibition at 1 µM in experiment [1] came to 49%; in experiment [3], 0%. Also, the values for the inhibition at 10 µM in experiment [2] and in experiment [4] were 35% and 19%, respectively.

Regarding `O=C(O)CCn1c(=O)n(C2CCN(C(=S)NC(c3ccccc3)c3ccccc3)CC2)c2ccccc21` [Compound 61, 1-[(N1-Piperidinocarbothioyldiphenylmethylamino)-4-yl]-3-(2-carboxyethyl)-1,3-dihydrobenzimidazol-2-one], the inhibition at 1 µM in experiment [1] came to 17%; in experiment [3] it was 0%. Besides, the inhibition at 10 µM in experiment [2] amounted to 90%; in experiment [4], 22%.

For `COc1ccc(C(NC(=S)N2CCC(n3c(=O)[nH]c4ccccc43)CC2)c2ccc(OC)cc2)cc1` [Compound 66, 1-[(N1-Piperidinocarbothioyl-1,1-di(p-anisyl)methylamino)-4-yl]-1,3-dihydrobenzimidazol-2-one], the inhibition at 0.1 µM in experiment [1] came to 15%. The results for the inhibition at 10 µM in experiment [2] and in experiment [4] were 21% and 11%, respectively. Further, the inhibition at 1 µM in experiment [3] was determined as 0%.

As a reminder, the IC50 is the concentration that inhibits the measured activity by half. A lower IC50 goes with greater potency.
